# Measured values from patent US10766882B2, “1,2-naphthoquinone based derivative and method of preparing the same” (YUNGJIN PHARM. CO., LTD., priority 2013, dated 2020).
# Target: NQO1 protein (Homo sapiens, UniProt P15559)
# Assay: NQO1 activity measurement (cytochrome C reduction)
# Format: biochemical
# Settings: 5 ng NQO1 protein, 200 μM NADH, 77 μM cytochrome C, 37° C., absorbance 550 nm for 10 minutes
# Experimental: An enzyme reaction solution included 25 mM Tris/HCl (pH 7.4), 0.14% bovine serum albumin, 200 μM NADH, 77 μM cytochrome C, and 5 ng of NQO1 protein. Enzymatic reaction was initiated by adding NADH and performed at 37° C. In this regard, a reaction rate was measured by observing absorbance, which was increased due to reduction of cytochrome C, at 550 nm for 10 minutes and NQO1 activity was represented as an amount of reduced cytochrome C [nmol cytochrome C reduced/min/μg protein].
# Extinction coefficient for cytochrome C:21.1 mmol/L/cm=21.1 μmol/ml/cm
# NQO1 protein, sequence (P15559 whole entry, species assumed): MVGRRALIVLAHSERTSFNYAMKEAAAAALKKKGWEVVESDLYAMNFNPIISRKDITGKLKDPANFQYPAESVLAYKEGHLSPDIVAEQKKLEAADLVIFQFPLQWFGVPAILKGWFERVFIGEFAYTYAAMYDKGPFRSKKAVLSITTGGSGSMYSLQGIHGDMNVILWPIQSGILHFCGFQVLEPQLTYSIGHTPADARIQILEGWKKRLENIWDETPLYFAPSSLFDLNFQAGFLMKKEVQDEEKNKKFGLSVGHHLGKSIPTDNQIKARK
row,SMILES,"NQO1 activity (5 μM, [nmol cytochrome C reduced/min/μg protein])"
1,O=C1C(=O)c2[nH]c(-c3nc4c([nH]3)C(=O)C(=O)c3ccccc3-4)nc2-c2ccccc21 [Example 92],186.8 nmol cytochrome C reduced/min/μg protein
2,CC(c1nc2c([nH]1)C(=O)C(=O)c1ccccc1-2)N1CCCC1 (stereo not drawn) [Example 65],93.5 nmol cytochrome C reduced/min/μg protein
3,CN(C)Cc1nc2c([nH]1)C(=O)C(=O)c1ccccc1-2 [Example 59],149.3 nmol cytochrome C reduced/min/μg protein
4,"CC(C)c1nc2c(n1CCO)C(=O)C(=O)c1ccccc1-2 [Example 68, 3-(2-hydroxyethyl)-2-isopropyl-3H-naphtho[2,1-d]imidazole-4,5-dione]",143.0 nmol cytochrome C reduced/min/μg protein
5,Cc1cc(F)ccc1N(Cc1nc2c([nH]1)C(=O)C(=O)c1ccccc1-2)C(=O)OC(C)(C)C [Example 52],60.3 nmol cytochrome C reduced/min/μg protein
6,CC(c1nc2c([nH]1)C(=O)C(=O)c1ccccc1-2)N1CCOCC1 (stereo not drawn) [Example 61],204.1 nmol cytochrome C reduced/min/μg protein
7,CCC(CC)c1nc2c([nH]1)C(=O)C(=O)c1ccccc1-2 [Example 77],223.3 nmol cytochrome C reduced/min/μg protein
8,"O=C1C(=O)c2[nH]c(Cl)nc2-c2ccccc21 [Example 70, 2-chloro-3H-naphtho[2,1-d]imidazole-4,5-dione]",83.9 nmol cytochrome C reduced/min/μg protein
9,CCc1nc2c(n1C(C)C)C(=O)C(=O)c1ccccc1-2 [Example 90],241.3 nmol cytochrome C reduced/min/μg protein
10,CC(c1nc2c([nH]1)C(=O)C(=O)c1ccccc1-2)N(C)C (stereo not drawn) [Example 60],140.1 nmol cytochrome C reduced/min/μg protein
11,O=C1C(=O)c2[nH]c(-c3cccnc3)nc2-c2ccccc21 [Example 87],94.7 nmol cytochrome C reduced/min/μg protein
12,CC(C)c1nc2c([nH]1)C(=O)C(=O)c1cc(NC(=O)C3CC3)ccc1-2 [Example 20],6.4 nmol cytochrome C reduced/min/μg protein
13,CC(C)c1nc2c(n1Cc1ccccn1)C(=O)C(=O)c1ccccc1-2 [Example 84],172.0 nmol cytochrome C reduced/min/μg protein
14,CC(O)c1nc2c(n1C(C)C)C(=O)C(=O)c1ccccc1-2 (stereo not drawn) [Example 91],206.9 nmol cytochrome C reduced/min/μg protein
15,O=C1C(=O)c2[nH]c(CCc3ccc(F)cc3)nc2-c2ccccc21 [Example 54],126.9 nmol cytochrome C reduced/min/μg protein
16,"O=C1C(=O)c2[nH]c(N3CCCC3)nc2-c2ccccc21 [Example 63, 2-(pyrrolidin-1-yl)-3H-naphtho[2,1-d]imidazole-4,5-dione]",40.3 nmol cytochrome C reduced/min/μg protein
17,CCc1nc2c(n1CC)C(=O)C(=O)c1ccccc1-2 [Example 86],220.0 nmol cytochrome C reduced/min/μg protein
18,Cn1c(COc2ccc(F)cc2)nc2c1C(=O)C(=O)c1ccccc1-2 [Example 80],162.6 nmol cytochrome C reduced/min/μg protein
19,O=C1C(=O)c2[nH]c(C3CCCO3)nc2-c2ccccc21 (stereo not drawn) [Example 73],180.8 nmol cytochrome C reduced/min/μg protein
20,CCc1nc2c(n1CC)C(=O)C(=O)c1cc(F)ccc1-2 [Example 88],187.4 nmol cytochrome C reduced/min/μg protein

row,SMILES,"NQO1 activity (5 μM, [nmol cytochrome C reduced/min/μg protein])"
1,CC(C)c1nc2c(n1Cc1cccnc1)C(=O)C(=O)c1ccccc1-2 [Example 83],162.5 nmol cytochrome C reduced/min/μg protein
2,CC(C)c1nc2c(n1CCCl)C(=O)C(=O)c1ccccc1-2 [Example 64],189.5 nmol cytochrome C reduced/min/μg protein
3,"CN(Cc1nc2c([nH]1)C(=O)C(=O)c1ccccc1-2)c1ccccc1 [Example 51, 2-((methyl (phenyl)amino)methyl)-3H-naphtho[2,1-d]imidazole-4,5-dione]",140.8 nmol cytochrome C reduced/min/μg protein
4,CC(C)c1nc2c(n1CCN1CCOCC1)C(=O)C(=O)c1ccccc1-2 [Example 66],56.0 nmol cytochrome C reduced/min/μg protein
5,CC(C)c1nc2c(n1CCN(C)C)C(=O)C(=O)c1ccccc1-2 [Example 72],51.0 nmol cytochrome C reduced/min/μg protein
6,CC(C)c1nc2c(n1C(C)C)C(=O)C(=O)c1ccccc1-2 [Example 85],135.4 nmol cytochrome C reduced/min/μg protein
7,CCc1nc2c(n1C(C)C)C(=O)C(=O)c1cc(F)ccc1-2 [Example 89],145.0 nmol cytochrome C reduced/min/μg protein
8,O=C1C(=O)c2[nH]c(COc3ccc(F)cc3)nc2-c2ccccc21 [Example 79],96.9 nmol cytochrome C reduced/min/μg protein
9,Cc1cc(F)ccc1OCc1nc2c([nH]1)C(=O)C(=O)c1ccccc1-2 [Example 50],100.6 nmol cytochrome C reduced/min/μg protein
10,"CN(C)c1nc2c([nH]1)C(=O)C(=O)c1ccccc1-2 [Example 62, 2-(dimethylamino)-3H-naphtho[2,1-d]imidazole-4,5-dione]",113.3 nmol cytochrome C reduced/min/μg protein
11,"O=C1C(=O)c2[nH]c(N3CCOCC3)nc2-c2ccccc21 [Example 67, 2-morpholino-3H-naphtho[2,1-d]imidazole-4,5-dione]",143.1 nmol cytochrome C reduced/min/μg protein
12,CC(C)c1nc2c(n1Cc1ccncc1)C(=O)C(=O)c1ccccc1-2 [Example 81],169.4 nmol cytochrome C reduced/min/μg protein
13,CC(C)(O)c1nc2c([nH]1)C(=O)C(=O)c1ccccc1-2 [Example 76],183.5 nmol cytochrome C reduced/min/μg protein
14,"CN1CCN(c2nc3c([nH]2)C(=O)C(=O)c2ccccc2-3)CC1 [Example 75, 2-(4-methylpiperazin-1-yl)-3H-naphtho[2,1-d]imidazole-4,5-dione]",26.9 nmol cytochrome C reduced/min/μg protein
15,CC(F)(F)c1nc2c([nH]1)C(=O)C(=O)c1ccccc1-2 [Example 82],70.2 nmol cytochrome C reduced/min/μg protein
16,CC(C)c1nc2c(n1Cn1c(C(C)C)nc3c1C(=O)C(=O)c1ccccc1-3)C(=O)C(=O)c1ccccc1-2 [Example 69],160.5 nmol cytochrome C reduced/min/μg protein
17,Cc1cc(F)ccc1NCc1nc2c([nH]1)C(=O)C(=O)c1ccccc1-2 [Example 53],112.6 nmol cytochrome C reduced/min/μg protein
18,CCOc1nc2c(n1C)C(=O)C(=O)c1ccccc1-2 [Example 74],193.5 nmol cytochrome C reduced/min/μg protein
19,CCOc1nc2c([nH]1)C(=O)C(=O)c1ccccc1-2 [Example 71],124.7 nmol cytochrome C reduced/min/μg protein
